According to patent US20230085307A1, “PYRIDAZINONE COMPOUND AND HERBICIDE” (NISSAN CHEMICAL CORPORATION, priority 2019, published 2023):

Experiments:
southern crabgrass [1] = assay: Test Example 4: herbicidal effect by soil treatment (Table 19, symbol F); type: in vivo, southern crabgrass (Digitaria ciliaris); details: amount of applied herbicide 320 g/ha
Procedure, shortened: (§1)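 Herbicidal effect was rated 3 weeks after treatment, using the scoring criteria of an earlier test. The compound, formulated as an emulsion and diluted in water to a set herbicide amount, had been sprayed uniformly on soil over freshly sown seeds. Growth took place in a greenhouse at 25° C. to 30° C.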

blackgrass = assay: Test Example 5: herbicidal effect by foliage application, plastic box (Table 20, symbol J); type: in vivo, blackgrass (Alopecurus myosuroides); details: 320 g/ha, foliage application after 14-day growth, evaluated three weeks after application
Procedure, shortened: (§2)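 Foliar spray test: emulsion formulation diluted in water to a set application rate, sprayed onto 14-day-old plants raised in diluvial soil at 25° C to 30° C under glass. Both herbicidal effect and crop effect rated visually three weeks later.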

green foxtail [2] = assay: Test Example 4: herbicidal effect by soil treatment (Table 19, symbol G); type: in vivo, green foxtail (Setaria viridis); details: amount of applied herbicide 320 g/ha
Procedure, shortened: as §1

wild oat [3] = assay: Test Example 5: herbicidal effect by foliage application, plastic box (Table 20, symbol I); type: in vivo, wild oat (Avena fatua); details: 320 g/ha, foliage application after 14-day growth, evaluated three weeks after application
Procedure, shortened: as §2

redroot pigweed [4] = assay: Test Example 5: herbicidal effect by foliage application, plastic box (Table 20, symbol N); type: in vivo, redroot pigweed (Amaranthus retroflexus); details: 320 g/ha, foliage application after 14-day growth, evaluated three weeks after application
Procedure, shortened: as §2

persian speedwell [5] = assay: Test Example 5: herbicidal effect by foliage application, plastic box (Table 20, symbol R); type: in vivo, Persian speedwell (Veronica persica); details: 320 g/ha, foliage application after 14-day growth, evaluated three weeks after application
Procedure, shortened: as §2

Italian ryegrass [6] = assay: Test Example 5: herbicidal effect by foliage application, plastic box (Table 20, symbol K); type: in vivo, Italian ryegrass (Lolium multiflorum); details: 320 g/ha, foliage application after 14-day growth, evaluated three weeks after application
Procedure, shortened: as §2

rice flat sedge = assay: Test Example 3: herbicidal effect by foliage application, Wagner pot (Table 18, symbol E); type: in vivo, rice flat sedge (Cyperus iria); details: 320 g/ha
Procedure, shortened: (§3)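 Plants were sown in alluvial soil held under 0.1–0.5 cm standing water and grown 14 days in a greenhouse at 25–30 °C. An emulsifiable formulation, water-diluted to the set dose, was then sprayed onto the foliage, and effects were scored three weeks later using previously defined criteria.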

Italian ryegrass [7] = assay: Test Example 4: herbicidal effect by soil treatment (Table 19, symbol K); type: in vivo, Italian ryegrass (Lolium multiflorum); details: amount of applied herbicide 320 g/ha
Procedure, shortened: as §1

chickweed [8] = assay: Test Example 5: herbicidal effect by foliage application, plastic box (Table 20, symbol P); type: in vivo, common chickweed (Stellaria media); details: 320 g/ha, foliage application after 14-day growth, evaluated three weeks after application
Procedure, shortened: as §2

persian speedwell [9] = assay: Test Example 4: herbicidal effect by soil treatment (Table 19, symbol R); type: in vivo, Persian speedwell (Veronica persica); details: amount of applied herbicide 320 g/ha
Procedure, shortened: as §1

barnyard grass [10] = assay: Test Example 5: herbicidal effect by foliage application, plastic box (Table 20, symbol H); type: in vivo, barnyard grass (Echinochloa crus-galli); details: 320 g/ha, foliage application after 14-day growth, evaluated three weeks after application
Procedure, shortened: as §2

velvetleaf [11] = assay: Test Example 4: herbicidal effect by soil treatment (Table 19, symbol M); type: in vivo, velvetleaf (Abutilon theophrasti); details: amount of applied herbicide 320 g/ha
Procedure, shortened: as §1

Chinese sprangletop = assay: Test Example 3: herbicidal effect by foliage application, Wagner pot (Table 18, symbol D); type: in vivo, chinese sprangletop (Leptochloa chinensis); details: 320 g/ha
Procedure, shortened: as §3

green foxtail [12] = assay: Test Example 5: herbicidal effect by foliage application, plastic box (Table 20, symbol G); type: in vivo, green foxtail (Setaria viridis); details: 320 g/ha, foliage application after 14-day growth, evaluated three weeks after application
Procedure, shortened: as §2

redroot pigweed [13] = assay: Test Example 4: herbicidal effect by soil treatment (Table 19, symbol N); type: in vivo, redroot pigweed (Amaranthus retroflexus); details: amount of applied herbicide 320 g/ha
Procedure, shortened: as §1

wild oat [14] = assay: Test Example 4: herbicidal effect by soil treatment (Table 19, symbol I); type: in vivo, wild oat (Avena fatua); details: amount of applied herbicide 320 g/ha
Procedure, shortened: as §1

lambsquarters [15] = assay: Test Example 5: herbicidal effect by foliage application, plastic box (Table 20, symbol O); type: in vivo, lambsquarters (Chenopodium album); details: 320 g/ha, foliage application after 14-day growth, evaluated three weeks after application
Procedure, shortened: as §2

lambsquarters [16] = assay: Test Example 4: herbicidal effect by soil treatment (Table 19, symbol O); type: in vivo, lambsquarters (Chenopodium album); details: amount of applied herbicide 320 g/ha
Procedure, shortened: as §1

velvetleaf [17] = assay: Test Example 5: herbicidal effect by foliage application, plastic box (Table 20, symbol M); type: in vivo, velvetleaf (Abutilon theophrasti); details: 320 g/ha, foliage application after 14-day growth, evaluated three weeks after application
Procedure, shortened: as §2

barnyard grass [18] = assay: Test Example 4: herbicidal effect by soil treatment (Table 19, symbol H); type: in vivo, barnyard grass (Echinochloa crus-galli); details: amount of applied herbicide 320 g/ha
Procedure, shortened: as §1

windgrass [19] = assay: Test Example 5: herbicidal effect by foliage application, plastic box (Table 20, symbol L); type: in vivo, windgrass (Apera spica-venti); details: 320 g/ha, foliage application after 14-day growth, evaluated three weeks after application
Procedure, shortened: as §2

windgrass [20] = assay: Test Example 4: herbicidal effect by soil treatment (Table 19, symbol L); type: in vivo, windgrass (Apera spica-venti); details: amount of applied herbicide 320 g/ha
Procedure, shortened: as §1

barnyard grass [21] = assay: Test Example 3: herbicidal effect by foliage application, Wagner pot (Table 18, symbol H); type: in vivo, barnyard grass (Echinochloa crus-galli); details: 320 g/ha
Procedure, shortened: as §3

chickweed [22] = assay: Test Example 4: herbicidal effect by soil treatment (Table 19, symbol P); type: in vivo, common chickweed (Stellaria media); details: amount of applied herbicide 320 g/ha
Procedure, shortened: as §1

southern crabgrass [23] = assay: Test Example 5: herbicidal effect by foliage application, plastic box (Table 20, symbol F); type: in vivo, southern crabgrass (Digitaria ciliaris); details: 320 g/ha, foliage application after 14-day growth, evaluated three weeks after application
Procedure, shortened: as §2

COc1ccccc1-c1sc2cc(OS(=O)(=O)C(F)(F)F)ccc2c1-c1c(O)c(C)nn(C)c1=O [3-161]
Herbicidal effect by soil treatment, F: southern crabgrass (southern crabgrass [1]): 0 (Herbicidal rate of 5% or less (almost no effect))
herbicidal effect on J: blackgrass (evaluation grade 0-5) (blackgrass): 4 (Herbicidal rate of 70% or more and less than 90%)
Herbicidal effect by soil treatment, G: green foxtail (green foxtail [2]): 0 (Herbicidal rate of 5% or less (almost no effect))
herbicidal effect on I: wild oat (evaluation grade 0-5) (wild oat [3]): 0 (Herbicidal rate of 5% or less (almost no effect))
herbicidal effect on N: redroot pigweed (evaluation grade 0-5) (redroot pigweed [4]): 4 (Herbicidal rate of 70% or more and less than 90%)
herbicidal effect on R: persian speedwell (evaluation grade 0-5) (persian speedwell [5]): 5 (Herbicidal rate of 90% or more (almost completely withered))
herbicidal effect on K: Italian ryegrass (evaluation grade 0-5) (Italian ryegrass [6]): 4 (Herbicidal rate of 70% or more and less than 90%)
herbicidal effect on rice flat sedge (E) (rice flat sedge): 3 (Herbicidal rate of 40% or more and less than 70%)
Herbicidal effect by soil treatment, K: Italian ryegrass (Italian ryegrass [7]): 0 (Herbicidal rate of 5% or less (almost no effect))
herbicidal effect on P: chickweed (evaluation grade 0-5) (chickweed [8]): 5 (Herbicidal rate of 90% or more (almost completely withered))
Herbicidal effect by soil treatment, R: persian speedwell (persian speedwell [9]): 0 (Herbicidal rate of 5% or less (almost no effect))
herbicidal effect on H: barnyard grass (evaluation grade 0-5) (barnyard grass [10]): 3 (Herbicidal rate of 40% or more and less than 70%)
Herbicidal effect by soil treatment, M: velvetleaf (velvetleaf [11]): 0 (Herbicidal rate of 5% or less (almost no effect))
herbicidal effect on Chinese sprangletop (D) (Chinese sprangletop): 3 (Herbicidal rate of 40% or more and less than 70%)
herbicidal effect on G: green foxtail (evaluation grade 0-5) (green foxtail [12]): 3 (Herbicidal rate of 40% or more and less than 70%)
Herbicidal effect by soil treatment, N: redroot pigweed (redroot pigweed [13]): 4 (Herbicidal rate of 70% or more and less than 90%)
Herbicidal effect by soil treatment, I: wild oat (wild oat [14]): 0 (Herbicidal rate of 5% or less (almost no effect))
herbicidal effect on O: lambsquarters (evaluation grade 0-5) (lambsquarters [15]): 3 (Herbicidal rate of 40% or more and less than 70%)
Herbicidal effect by soil treatment, O: lambsquarters (lambsquarters [16]): 0 (Herbicidal rate of 5% or less (almost no effect))
herbicidal effect on M: velvetleaf (evaluation grade 0-5) (velvetleaf [17]): 2 (Herbicidal rate of 20% or more and less than 40%)
Herbicidal effect by soil treatment, H: barnyard grass (barnyard grass [18]): 0 (Herbicidal rate of 5% or less (almost no effect))
herbicidal effect on L: windgrass (evaluation grade 0-5) (windgrass [19]): 4 (Herbicidal rate of 70% or more and less than 90%)
Herbicidal effect by soil treatment, L: windgrass (windgrass [20]): 0 (Herbicidal rate of 5% or less (almost no effect))
herbicidal effect on barnyard grass (H) (barnyard grass [21]): 5 (Herbicidal rate of 90% or more (almost completely withered))
Herbicidal effect by soil treatment, P: chickweed (chickweed [22]): 0 (Herbicidal rate of 5% or less (almost no effect))
herbicidal effect on F: southern crabgrass (evaluation grade 0-5) (southern crabgrass [23]): 0 (Herbicidal rate of 5% or less (almost no effect))

Cc1nn(C)c(=O)c(-c2c(-c3ccc(OC(F)F)cc3)sc3c(F)cccc23)c1O [4-046]
Herbicidal effect by soil treatment, F: southern crabgrass (southern crabgrass [1]): 0 (Herbicidal rate of 5% or less (almost no effect))
herbicidal effect on J: blackgrass (evaluation grade 0-5) (blackgrass): 4 (Herbicidal rate of 70% or more and less than 90%)
Herbicidal effect by soil treatment, G: green foxtail (green foxtail [2]): 3 (Herbicidal rate of 40% or more and less than 70%)
herbicidal effect on I: wild oat (evaluation grade 0-5) (wild oat [3]): 4 (Herbicidal rate of 70% or more and less than 90%)
herbicidal effect on N: redroot pigweed (evaluation grade 0-5) (redroot pigweed [4]): 5 (Herbicidal rate of 90% or more (almost completely withered))
herbicidal effect on R: persian speedwell (evaluation grade 0-5) (persian speedwell [5]): 5 (Herbicidal rate of 90% or more (almost completely withered))
herbicidal effect on K: Italian ryegrass (evaluation grade 0-5) (Italian ryegrass [6]): 5 (Herbicidal rate of 90% or more (almost completely withered))
herbicidal effect on rice flat sedge (E) (rice flat sedge): 5 (Herbicidal rate of 90% or more (almost completely withered))
Herbicidal effect by soil treatment, K: Italian ryegrass (Italian ryegrass [7]): 3 (Herbicidal rate of 40% or more and less than 70%)
herbicidal effect on P: chickweed (evaluation grade 0-5) (chickweed [8]): 5 (Herbicidal rate of 90% or more (almost completely withered))
Herbicidal effect by soil treatment, R: persian speedwell (persian speedwell [9]): 5 (Herbicidal rate of 90% or more (almost completely withered))
herbicidal effect on H: barnyard grass (evaluation grade 0-5) (barnyard grass [10]): 5 (Herbicidal rate of 90% or more (almost completely withered))
Herbicidal effect by soil treatment, M: velvetleaf (velvetleaf [11]): 3 (Herbicidal rate of 40% or more and less than 70%)
herbicidal effect on Chinese sprangletop (D) (Chinese sprangletop): 1 (Herbicidal rate of 5% or more and less than 20%)
herbicidal effect on G: green foxtail (evaluation grade 0-5) (green foxtail [12]): 5 (Herbicidal rate of 90% or more (almost completely withered))
Herbicidal effect by soil treatment, N: redroot pigweed (redroot pigweed [13]): 5 (Herbicidal rate of 90% or more (almost completely withered))
Herbicidal effect by soil treatment, I: wild oat (wild oat [14]): 0 (Herbicidal rate of 5% or less (almost no effect))
herbicidal effect on O: lambsquarters (evaluation grade 0-5) (lambsquarters [15]): 5 (Herbicidal rate of 90% or more (almost completely withered))
Herbicidal effect by soil treatment, O: lambsquarters (lambsquarters [16]): 1 (Herbicidal rate of 5% or more and less than 20%)
herbicidal effect on M: velvetleaf (evaluation grade 0-5) (velvetleaf [17]): 5 (Herbicidal rate of 90% or more (almost completely withered))
Herbicidal effect by soil treatment, H: barnyard grass (barnyard grass [18]): 3 (Herbicidal rate of 40% or more and less than 70%)
herbicidal effect on L: windgrass (evaluation grade 0-5) (windgrass [19]): 5 (Herbicidal rate of 90% or more (almost completely withered))
Herbicidal effect by soil treatment, L: windgrass (windgrass [20]): 0 (Herbicidal rate of 5% or less (almost no effect))
herbicidal effect on barnyard grass (H) (barnyard grass [21]): 5 (Herbicidal rate of 90% or more (almost completely withered))
Herbicidal effect by soil treatment, P: chickweed (chickweed [22]): 3 (Herbicidal rate of 40% or more and less than 70%)
herbicidal effect on F: southern crabgrass (evaluation grade 0-5) (southern crabgrass [23]): 0 (Herbicidal rate of 5% or less (almost no effect))
